The target of this assay is T1, human cGAS (residues 161-522) (Homo sapiens, UniProt Q8N884).
T1 construct: human cGAS (residues 161-522); made in house
T1 sequence (Q8N884 161-522): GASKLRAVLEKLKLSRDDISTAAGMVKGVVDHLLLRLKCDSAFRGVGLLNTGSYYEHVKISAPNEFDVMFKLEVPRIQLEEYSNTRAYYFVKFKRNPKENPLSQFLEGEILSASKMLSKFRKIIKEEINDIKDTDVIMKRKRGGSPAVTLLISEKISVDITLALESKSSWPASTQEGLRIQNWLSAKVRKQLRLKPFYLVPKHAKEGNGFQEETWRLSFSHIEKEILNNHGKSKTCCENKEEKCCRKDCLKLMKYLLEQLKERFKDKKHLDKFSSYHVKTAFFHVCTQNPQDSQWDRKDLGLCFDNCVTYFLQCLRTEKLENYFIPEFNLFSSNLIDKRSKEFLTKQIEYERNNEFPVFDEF
Kind of assay: cGAS Activity Assay—Malachite Green. The assay is classed as biochemical. The conditions noted are these: recombinant purified human cGAS 25 nM; 80 μM ATP, 80 μM GTP, 100 nM ISD; 4 hour at RT; phosphate detection by Malachite Green. The protocol: Compounds were tested for cGAS inhibition in a coupled enzymatic assay based on Phosphate detection by Malachite Green. Final assay conditions were 20 mM TRIS pH 7.5 (Applichem), 5 mM MgCl2 (Sigma) and 0.01% BSA (Sigma) supplemented with 80 μM ATP (Sigma), 80 μM GTP (Sigma) and 100 nM Interferon Stimulating DNA (ISD) (Microsynth). Recombinantly expressed purified human cGAS (residues 161-522) was used at 25 nM.
All compounds were prepared as 10 mM stock solutions in DMSO and a 16 pt dilution series in DMSO with a dilution factor of 2.5 was prepared. 1 μL of DMSO dilution series was transferred to 32.3 μL reaction buffer, mixed by pipetting up/down, spun for 1 minute at 3000 rpm and was visually inspected for precipitation. 5 μL of 3-fold enzyme stock solution were transferred to an empty 384-well Black/Clear Flat Bottom Polystyrene NBS (Corning) rows 3-24. Rows 1-2 were filled with assay buffer. Plates were spun 10 seconds at 1000 rpm (164×g). 5 μL of compound intermediate dilution was added and mixed by pipetting up/down to rows 3-24. Rows 1-2 were filled with 3.1% DMSO assay buffer. Plates were spun 10 seconds at 1000 rpm (164×g). 5 μL 3-fold Nucleotide/DNA mix was added to all wells to start the reaction. Plates were spun 10 seconds at 1000 rpm (164×g) and incubated for 4 hour at room temperature (RT) in the dark. 5 μL 4 U/ml PPase (Sigma) were added to all wells. Plates spun 10 seconds at 1000 rpm (164×g). 10 μL BioMol green Solution (Enzo Life Sciences) was added to all wells. Plates spun 10 seconds at 1000 rpm (164×g) and incubated 30 minutes at RT in the dark. Absorbance data was collected 620 nm on an EnVision Multilable Reader (Perkin Elmer) and the following measurement settings were used: excitation filter photometric was 620 nm; excitation from the top; measurement height was 1 mm; number of flashes was 30; number of flashes integrated was 1.
All plates are checked for abnormalities and outliers in the Blank Control (no protein, row 1) and the Neutral Control (no compound, row 2) are excluded using the 3*SD rule. Data was normalized to 0 and 100% by Blank and Neutral Control and each curve was fitted and judged using the 4 parameter logistic equation to determine the IC50 for cGAS inhibition.
Table 13 provides IC50 values (μM) for cGAS inhibition obtained for particular examples of the present invention as measured by the above-described assay.
In the case of `Cc1oncc1/C(O)=C(\C#N)C(=O)Nc1cccc(C#N)c1` [Example 33, (Z)-2-cyano-N-(3-cyanophenyl)-3-hydroxy-3-(5-methylisoxazol-4-yl)prop-2-enamide], the IC50 (commonly the midpoint of a concentration-inhibition curve) was 310 nM.

Consider `Cc1oncc1/C(O)=C(\C#N)C(=O)Nc1ccc([S+]([O-])c2ccccc2)cc1` (centres unmarked) [Example 34, (Z)-2-cyano-3-hydroxy-3-(5-methylisoxazol-4-yl)-N-(4-(phenylsulfinyl)phenyl) acrylamide], for which the IC50 was 190 nM.

For the molecule `Cc1oncc1/C(O)=C(\C#N)C(=O)Nc1ccc(C(=O)N(C)C)cc1` [Example 35, 4-[[(Z)-2-cyano-3-hydroxy-3-(5-methylisoxazol-4-yl)prop-2-enoyl]amino]-N,N-dimethyl-benzamide], the IC50 is 710 nM.

Turning to `CNC(=O)c1ccc(NC(=O)/C(C#N)=C(\O)c2cnoc2C)cc1` [Example 36, 4-[[(Z)-2-cyano-3-hydroxy-3-(5-methylisoxazol-4-yl)prop-2-enoyl]amino]-N-methyl-benzamide], the IC50 amounted to 370 nM.

In the case of `COc1ccc(NC(=O)/C(C#N)=C(\O)c2cnoc2C)nc1` [Example 37, (Z)-2-cyano-3-hydroxy-N-(5-methoxy-2-pyridyl)-3-(5-methylisoxazol-4-yl)prop-2-enamide], the IC50 came to 420 nM.

With `Cc1oncc1/C(O)=C(\C#N)C(=O)Nc1ccc(C(=O)c2ccccc2)cc1` [Example 38, (Z)-N-(4-benzoylphenyl)-2-cyano-3-hydroxy-3-(5-methylisoxazol-4-yl)prop-2-enamide], the half-maximal inhibitory concentration (IC50) is 1160 nM.

With `COc1ccc(S(=O)(=O)c2ccc(NC(=O)/C(C#N)=C(\O)c3cnoc3C)cc2)cc1` [Example 39, (Z)-2-cyano-3-hydroxy-N-(4-((4-methoxyphenyl)sulfonyl)phenyl)-3-(5-methylisoxazol-4-yl)acrylamide], the IC50 stood at 490 nM.

With `Cc1oncc1/C(O)=C(\C#N)C(=O)Nc1ccc(S(=O)(=O)Nc2nccs2)cc1` [Example 40, (Z)-2-cyano-3-hydroxy-3-(5-methylisoxazol-4-yl)-N-[4-(thiazol-2-ylsulfamoyl)phenyl]prop-2-enamide], the IC50 was determined as 140 nM.

In the case of `Cc1oncc1/C(O)=C(\C#N)C(=O)Nc1ccc(OC2COC2)cc1` [Example 41, (Z)-2-cyano-3-hydroxy-3-(5-methylisoxazol-4-yl)-N-[4-(oxetan-3-yloxy)phenyl]prop-2-enamide], the IC50 amounted to 1290 nM.

For the molecule `CC(=O)Nc1ccc(NC(=O)/C(C#N)=C(\O)c2cnoc2C)cc1` [Example 42, (Z)-N-(4-acetamidophenyl)-2-cyano-3-hydroxy-3-(5-methylisoxazol-4-yl)prop-2-enamide], the IC50 is 270 nM.

`Cc1nnc(NS(=O)(=O)c2ccc(NC(=O)/C(C#N)=C(\O)c3cnoc3C)cc2)s1` [Example 43, (Z)-2-cyano-3-hydroxy-3-(5-methylisoxazol-4-yl)-N-[4-[(5-methyl-1,3,4-thiadiazol-2-yl)sulfamoyl]phenyl]prop-2-enamide]: the IC50 was determined as 210 nM.

As for `Cc1oncc1/C(O)=C(\C#N)C(=O)Nc1ccc(C(N)=O)cc1` [Example 44, 4-[[(Z)-2-cyano-3-hydroxy-3-(5-methylisoxazol-4-yl)prop-2-enoyl]amino]benzamide], the IC50 was found to be 240 nM.

Take `Cc1oncc1/C(O)=C(\C#N)C(=O)Nc1ccc(S(=O)(=O)Nc2ncccn2)cc1` [Example 45, (Z)-2-cyano-3-hydroxy-3-(5-methylisoxazol-4-yl)-N-[4-(pyrimidin-2-ylsulfamoyl)phenyl]prop-2-enamide]: the IC50 came to 90 nM.

`COc1cnc(NC(=O)/C(C#N)=C(\O)c2cnoc2C)nc1` [Example 46, (Z)-2-cyano-3-hydroxy-N-(5-methoxypyrimidin-2-yl)-3-(5-methylisoxazol-4-yl)prop-2-enamide]: the IC50 came to 70 nM.

As for `Cc1oncc1/C(O)=C(\C#N)C(=O)Nc1ccc(S(=O)(=O)N2CCOCC2)cc1` [Example 47, (Z)-2-cyano-3-hydroxy-3-(5-methylisoxazol-4-yl)-N-(4-(morpholinosulfonyl)phenyl)acrylamide], the IC50 was 200 nM.

Consider `CCCNS(=O)(=O)c1ccc(NC(=O)/C(C#N)=C(\O)c2cnoc2C)cc1` [Example 48, (Z)-2-cyano-3-hydroxy-3-(5-methylisoxazol-4-yl)-N-(4-(N-propylsulfamoyl)phenyl) acrylamide], for which the IC50 is 100 nM.

For the molecule `Cc1oncc1/C(O)=C(\C#N)C(=O)Nc1cccc(S(=O)(=O)c2ccccc2)c1` [Example 49, (Z)-2-cyano-3-hydroxy-3-(5-methylisoxazol-4-yl)-N-(3-(phenylsulfonyl)phenyl) acrylamide], the IC50 turned out to be 2500 nM.

`Cc1cc(C(F)(F)F)ccc1NC(=O)/C(C#N)=C(\O)c1cnoc1C` [Example 50, (Z)-2-cyano-3-hydroxy-N-(2-methyl-4-(trifluoromethyl)phenyl)-3-(5-methylisoxazol-4-yl)acrylamide]: the half-maximal inhibitory concentration (IC50) is 1050 nM.

For `Cc1oncc1/C(O)=C(\C#N)C(=O)Nc1cccc(-c2ccccc2)c1` [Example 51, (Z)-2-cyano-3-hydroxy-3-(5-methylisoxazol-4-yl)-N-(3-phenylphenyl) prop-2-enamide], the IC50 was determined as 1990 nM.

`Cc1oncc1/C(O)=C(\C#N)C(=O)Nc1cccc(Oc2ccccc2)c1` [Example 52, (Z)-2-cyano-3-hydroxy-3-(5-methylisoxazol-4-yl)-N-(3-phenoxyphenyl)acrylamide]: the IC50 was determined as 1740 nM.

For the molecule `CCN(CC)C(=O)CNS(=O)(=O)c1ccc(NC(=O)/C(C#N)=C(\O)c2cnoc2C)cc1` [Example 53, (Z)-2-cyano-N-(4-(N-(2-(diethylamino)-2-oxoethyl)sulfamoyl)phenyl)-3-hydroxy-3-(5-methylisoxazol-4-yl)acrylamide], the IC50 came to 300 nM.

As to `Cc1oncc1/C(O)=C(\C#N)C(=O)Nc1ccc(S(=O)(=O)Nc2ccccc2)cc1` [Example 54, (Z)-2-cyano-3-hydroxy-3-(5-methylisoxazol-4-yl)-N-(4-(N-phenylsulfamoyl)phenyl) acrylamide], the IC50 is 220 nM.

With `Cc1oncc1/C(O)=C(\C#N)C(=O)Nc1ccc(Sc2ccccc2)cc1` [Example 55, (Z)-2-cyano-3-hydroxy-3-(5-methylisoxazol-4-yl)-N-(4-(phenylthio)phenyl) acrylamide], the IC50 was found to be 2020 nM.

As for `Cc1oncc1/C(O)=C(\C#N)C(=O)Nc1ccc(C(F)(F)F)cc1Cl` [Example 56, (Z)-N-(2-chloro-4-(trifluoromethyl)phenyl)-2-cyano-3-hydroxy-3-(5-methylisoxazol-4-yl)acrylamide], the IC50 worked out at 740 nM.

As for `Cc1oncc1/C(O)=C(\C#N)C(=O)Nc1ccc(S(=O)(=O)Nc2ccc(C#N)cc2)cc1` [Example 57, (Z)-2-cyano-N-(4-(N-(4-cyanophenyl)sulfamoyl)phenyl)-3-hydroxy-3-(5-methylisoxazol-4-yl)acrylamide], the IC50 came out at 290 nM.

As to `Cc1oncc1C(=O)N(c1ccc(C#N)cc1)S(=O)(=O)c1ccc(NC(=O)/C(C#N)=C(\O)c2cnoc2C)cc1` [Example 58, (Z)-N-((4-(2-cyano-3-hydroxy-3-(5-methylisoxazol-4-yl)acrylamido)phenyl)sulfonyl)-N-(4-cyanophenyl)-5-methylisoxazole-4-carboxamide], the IC50 is 330 nM.

The record behind these values is patent US20230242494A1, “MALONITRILE DERIVATIVES” (Hoffmann-La Roche Inc., priority 2020, published 2023).
